Measured values from PMC6068344, “CPP‐E1A fusion peptides inhibit CtBP‐mediated transcriptional repression” (Molecular Oncology, 2018).
No end group written: not given here.

Legend:
[1] = biological target: CtBP1; details: ref Zhang et al., 2002; read-out: K d, binding to CtBP1; cited from earlier work
Excerpt: This idea is strengthened by several studies that have found a correlation between CtBP1/2 overexpression and cancer progression in multiple tumor types, including blood (Senyuk et al., 2002), skin (Deng et al., 2013), breast (Birts et al., 2010; Deng et al., 2012; Di et al., 2013), prostate (Moiola et al., 2014; Wang et al., 2012), ovarian (May et al., 2013; Zhang e ...

[2] = biological target: 6xHis‐CtBP1 (UniProt Q13363); assay: AlphaScreen; details: competition against the CtBP1-E1A interaction, peptide at 250 µM (highest concentration), IC50 printed as 'Not determined', read off a plot
[3] = biological target: T1, 6xHis-CtBP1 and GST-E1A (CtBP1-E1A interaction) (Homo sapiens, UniProt Q13363); assay: AlphaScreen assay of the CtBP1-E1A interaction; type: binding; details: AlphaScreen competition with GST-E1A; 125 nM 6xHis-CtBP1, 125 nM GST-E1A; peptide 2 μM to 200 μM; three experiments in triplicate; GraphPad Prism; read-out: IC50 (μM), disruption of the CtBP1-E1A interaction
T1 construct: 6xHis; made in house
Experimental: The AlphaScreen assay was carried out using 6xHis‐CtBP1 and GST‐E1A proteins following the manufacturer's protocol (PerkinElmer, Waltham, MA, USA) unless otherwise specified. GST‐E1A and 6xHis‐CtBP were purified as previously described (Blevins et al., 2015). To confirm inhibition by CPP‐E1A peptides, each peptide was added at varying concentrations (2 μM to 200 μM) to compete with GST‐E1A in the AlphaScreen assay containing 125 nM 6xHis‐CtBP1 and 125 nM GST‐E1A. The IC50 value of each peptide was calculated using the GRAPHPAD PRISM software (GraphPad Software, San Diego, CA, USA).

[4] = system: H1299 cells; assay: Peptide internalization by anti-FLAG immunofluorescence in H1299 cells; type: in vitro ADME, human; details: 20 μM peptide, 30 min, DAPI
Experimental: (§1) H1299 or A375 cells were allowed to adhere to a cover slip overnight in DMEM complete media and grown until they reached approximately 75% confluency on the cover slip surface. After a 30 min treatment with 20 μM peptides, TAT (used as a negative control), TAT‐E1A‐WT, and Pep1‐E1A‐WT, cells were fixed for 10 min using 100% methanol, and permeabilized for 1 min in 100% acetone. Each sample was stained with an anti‐FLAG antibody and detected using an Alexa Fluor 555 anti‐mouse IgG (4409S; Cell Signaling Technology, Danvers, MA, USA). DAPI staining was used to visualize the nucleus.

[5] = system: A375 cells; assay: Peptide internalization by anti-FLAG immunofluorescence in A375 cells; type: in vitro ADME, human; details: for Entry into A375 cells: anti-FLAG immunofluorescence as in Figure 2 (20 μM, 30 min)
Experimental: as §1

[6] = system: H1299 cells; assay: Subcellular fractionation and anti-FLAG western blot of the nuclear fraction; type: in vitro ADME, human; details: 1-h treatment, anti-FLAG, two biological replicates
Experimental: For cellular fractionation, H1299 cells were treated with 42 μg·mL^−1 digitonin in NEH lysis buffer (20 mM HEPES [pH 7.4], 150 mM NaCl, 0.2 mM EDTA, 2 mM DTT, and 2 mM MgCl2) plus a protease inhibitor cocktail (Roche) for 10 min at 4 °C. The H1299 cell lysate was centrifugated at 15 000 g in a Beckman Coulter Microfuge 22R (Beckman Coulter, Brea, CA, USA) for 10 min at 4 °C to remove the cytosolic fraction. The remaining pellet was washed twice with chilled PBS before the addition of the nuclear lysis buffer (40 mM Tris/HCl [pH 7.4], 100 mM NaCl, 10% glycerol, 2 mM β‐ME, and 0.5% Triton X‐100) plus the protease inhibitor cocktail. The nuclear fraction was incubated at 4 °C for 1 h before the final centrifugation at 15 000 g for 20 min. The soluble nuclear fraction was then used for a western blot analysis to monitor peptide levels within the nuclear fraction using a FLAG antibody (LT0420; LifeTein LLC, Somerset, NJ, USA). The western blot was also probed with primary antibodies against α‐tubulin (sc‐8035; SantaCruz Biotechnology, Dallas, TX, USA) and HDAC1 (ab‐68436; Abcam, Cambridge, MA, USA) as cytoplasmic and nuclear controls, respectively, to confirm subcellular fractionation.

[7] = Peptide stability in H1299 cells (western blot, fluorescence microscopy); type: in vitro ADME, human; details: 10 μM, 45 min, 2 h, 4 h, 8 h, western blot and FITC fluorescence microscopy

Row | Compound | IC50 [3] [µM] | Localization to the nucleus by immunofluorescence [4] | Entry into A375 cells [5] | Peptide in the nuclear fraction (western blot) [6] | further results
1 | NC(=O)C1=CN([C@@H]2O[C@H](COP(=O)(O)OP(=O)(O)OC[C@H]3O[C@@H](n4cnc5c(N)ncnc54)[C@H](O)[C@@H]3O)[C@@H](O)[C@H]2O)C=CC1 [NADH, nicotinamide adenine dinucleotide] |  |  |  |  | Kd [1]: 0.1 µM
2 | Pep1‐E1A‐WT L35E; S36L |  |  |  |  | response ([2]; parent: est. 5): 58 % Bound
3 | GSHMKETWWETWWTEWSQPKKKRKVLEEPGQPLDLSCKRPRDYKDDDDK [Pep1-E1A-WT] | 7.1 ± 1.2 | significant amount of localization to the nucleus | can enter the A375 cells | found in the nuclear fraction | Nuclear localization pattern in A375 cells ([5]; anti-FLAG immunofluorescence as in Figure 2): more predominant nuclear localization pattern; Peptide half-life / stability in vitro [7]: short half‐life
4 | GSHMGRKKRRQRRRPPQLEEPGQPLDLSCKRPRDYKDDDDK [TAT-E1A-WT] | 5.6 ± 1.4 | much lower amount in the nucleus | can enter the A375 cells | found in the nuclear fraction | 
5 | TAT‐E1A‐WT L27E; S28L |  |  |  |  | response ([2]; parent: est. 3): 80 % Bound
